# Experimental data taken from patent US9233949B2, “Treatment for oxidative stress and/or hypertension” (Georgetown University, priority 2009, dated 2016).
# Columns and labels:
# [1] = tested on: conscious spontaneously hypertensive rats; test: Telemetric mean arterial pressure in conscious SHR on high salt diet after gavage; format: in vivo, rat; conditions: for reduction of MAP: 80 μmol·kg^−1 once-daily gavage, high salt diet, maximal 16-24 hours after each gavage; for reduction of BP compared with tempol: after the first and the fourth gavage
# Protocol: Spontaneously hypertensive rats (SHR) were anesthetized with 3% isoflurane for placement of telemetric blood pressure recorders as described (46). After 10 days, spontaneously hypertensive rats were anesthetized with halothane between 9 and 10 am and given a 2 mL gavage. Each rat was first given a training gavage with 2 mL of vehicle (0.9% w/v sodium chloride) and, two days later a second vehicle gavage as the control group. We detected no differences in the pattern of 4-hourly BP recording after the first or second vehicle gavage, compared to a day in which no gavage was given (data not shown). Blood pressure was recorded continuously. Data are presented as mean values over 4-hr periods for mean arterial pressure (MAP) and heart rate (HR). Two days after the second vehicle gavage, rats were again anesthetized with halothane and given a 2 mL gavage with one of the test drugs (10 mmol/L or 80 μmol·kg^−1). In random order rats received tempol, telmisartan, tempol plus telmisartan, or tempol/telmisartan ester-linked adduct (YK). Each rat received only one drug or drug combination. Two additional groups were tested similarly with candesartan and tempol+candesartan.
# Preliminary studies were undertaken of antihypertensive responsiveness to gavage with 80 and 800 μmol kg^−1 of tempol. […] Therefore, the study was conducted in rats equilibrated to a high salt intake (Teklad Inc, 2826 Latham Drive, Madison, Wis. 53713) and given four daily doses of […] of drugs or vehicle.
# [2] = tested on: Ang II-stimulated spontaneously hypertensive rat preglomerular vascular smooth muscle cells; test: O2.^− generation in Ang II-stimulated PGVSMCs, lucigenin-enhanced chemiluminescence; format: cell-based
# Protocol: Preglomerular vascular smooth muscle cells (PGVSMCs) were isolated from 13- to 15-week-old male spontaneously hypertensive rats purchased from Taconic Farms (Germantown, N.Y.) as previously described (3, 9). Briefly, 1% Fe2O3 in DMEM was injected into isolated kidneys through the renal artery. The iron-loaded kidney was removed from the rat, the cortex was minced and washed in a 1% collagenase IV solution. Blood vessels were collected on a magnet and incubated with DMEM/F12 supplemented with 10% FCS and 20 U of penicillin-streptomycin. Experiments were conducted between passage 5 and 15. PGVSMCs were cultured in DMEM/F12 supplemented with 10% FBS, 100 U/mL penicillin, 100 μg/mL streptomycin and 200 μg/mL glutamine at 37° C. in 5% CO2-95% air at 98% humidity. […]
# To determine the effects of drugs, cells were pretreated with graded concentrations (10^−12 to 10^−4 M) of tempol, telmisartan, tempol plus telmisartan, and tempol/telmisartan ester-linked adduct or vehicle (PBS) for 2 hours. […] Chemiluminescence was quantitated in a reader (AutoLumatPlus LB 953; EG&G, Berthold, Germany). The dynamic tracing was recorded for 180 seconds after the addition of lucigenin (10 μmol·L^−1) and NADPH (100 μmol·L^−1). […] The protein concentrations were measured with Bio-Rad kit (Hercules, Calif.). […]
# [3] = tested on: conscious salt-loaded spontaneously hypertensive rats; test: MAP in conscious salt-loaded SHR, daily oral gavage of drugs dissolved in DMSO; format: in vivo, rat; conditions: for Δ MAP Day 1 / Δ MAP Day 2 / Δ MAP Day 3: mean vehicle-adjusted fall, 2 mL of 10 mmol/L daily oral gavage, DMSO, n=3; for blood pressure effect, summary of Table 1: over three days, DMSO vehicle
# Protocol: In another experiment, conscious salt-loaded spontaneously hypertensive rats received daily oral gavage with 2 mL of 10 mmol/L tempol, telmisartan, tempol/telmisartan ester-linked adduct (YK), tempamine/telmisartan amide-linked adduct (PLJ), and tempol+telmisartan. The drugs were dissolved in DMSO.
# [4] = tested on: O2.^− generated by xanthine plus xanthine oxidase; test: Cell-free SOD mimetic / antioxidant assay, lucigenin-enhanced chemiluminescence; format: biochemical; conditions: drugs 10^−4 M, cell-free buffer with xanthine plus xanthine oxidase
# Protocol: Low dose (10 μmol L^−1) lucigenin-enhanced chemiluminescence was used as previously described, to detect O2.^−, antioxidants or SOD mimetic properties. Vehicle or drugs (10^−4 M) were first added to cell-free buffer with O2.^− stimulated with xanthine (25 μmol/L) plus xanthine oxidase (9 IU/mL) to study the intrinsic antioxidant properties of the drugs used (34). Subsequent studies were performed in PGVSMCs from spontaneously hypertensive rats grown in 6-well plates. Cells (10^6 cells per well) were stimulated for 4 hours with Ang II (10^−6 M) to generate O2.^− in the presence of vehicle or drugs (19, 34, 45).
# AT2-R = target: T1, AT2-R (Bos taurus, UniProt G5E6F7); test: Angiotensin II, Type 2 receptor radioligand binding displacement; parameters: species or system bovine; conditions: 10^−8 M drug concentration, n=2 (FIG. 3B)
# T1 construct: from tissue; host or cells: bovine cerebellum membranes
# T1 sequence (G5E6F7 1-362): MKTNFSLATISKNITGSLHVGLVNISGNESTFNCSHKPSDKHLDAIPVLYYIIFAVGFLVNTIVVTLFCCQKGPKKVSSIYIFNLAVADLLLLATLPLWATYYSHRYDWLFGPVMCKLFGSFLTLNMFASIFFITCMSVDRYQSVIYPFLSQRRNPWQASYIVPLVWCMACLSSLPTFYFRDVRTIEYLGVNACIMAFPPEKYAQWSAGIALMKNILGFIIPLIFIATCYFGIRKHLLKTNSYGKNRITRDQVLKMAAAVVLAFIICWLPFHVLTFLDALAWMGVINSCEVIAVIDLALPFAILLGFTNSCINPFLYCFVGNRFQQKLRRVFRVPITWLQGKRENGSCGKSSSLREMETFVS
# Protocol: Angiogensin II, Type 2 Assay.
# The assay was performed with a membrane preparation from bovine cerebellum. 200 μL of receptor suspension was re-suspended as 400 units in 80 mL and 100 units in 20 mL. The ligand [^125I]Tyr-4-Angiotensin II ([M] 1E-^10, Kd (binding affinity) 4E-^10, Bmax 2.11 fmol/mg) was used as a control. Radioactivity was counted in DPM. The assay buffer was 50 mM TRIS-HCl, containing 100 mM NaCl, 1 mM MgCl2, 0.1 mM Bacitracin, 0.1% BSA, (pH 7.2 at 25° C.) in an assay volume of 250 μL. Radioligand: 25 μL of Sar1, Tyr4-[^125I].
SMILES,reduction of MAP [1],"fall in MAP, high salt (6 g·100 g^−1) compared to normal salt (0.3 g·100 g^−1) diet ([1]; pilot study, 16-24 hours after tempol 80 μmol kg^−1)","fall in MAP after 4 daily doses compared to the first dose ([1]; pilot study, high salt intake)","inhibition of O2.^− generation, tempol versus telmisartan ([2]; at 10^−4 M)",Δ MAP Day 1 [3] [mmHg],Δ MAP Day 2 [3] [mmHg],Δ MAP Day 3 [3] [mmHg],"blood pressure effect, summary of Table 1 [3]",reduction of BP compared with tempol [1],inhibition of lucigenin-enhanced chemiluminescence counts [4],reduction of BP compared with single drugs ([1]; 12-24 hours after the first gavage),additive effect on BP with repeated dosing ([1]; 16-24 hours after the fourth gavage),reduction of MAP compared with candesartan or candesartan plus tempol ([1]; over 24 hours),reduction of blood pressure compared with candesartan or candesartan plus tempol ([1]; over four days),"inhibition of O2.^− generation ([2]; 10^−12 to 10^−4 M, 10^−6 M Ang II for 4 hours, comparison at 10^−11, 10^−10 and 10^−6 M)",AT2-R binding displacement (AT2-R)
"CC1(C)CC(O)CC(C)(C)N1[O] [Tempol, tempol]",reduced the MAP,twice as great,twice as great,significantly (p<0.05) more effective than telmisartan,0,−4,−2,apparent absence of any consistent effect,–,–,–,–,–,–,–,–
"CCCc1nc2c(C)cc(-c3nc4ccccc4n3C)cc2n1Cc1ccc(-c2ccccc2C(=O)O)cc1 [Telmisartan, telmisartan]",reduced the MAP,–,–,–,−14,−20,−16,–,significantly more effective in reducing the BP than tempol,ineffective,–,–,–,–,–,–
CCCc1nc2c(C)cc(-c3nc4ccccc4n3C)cc2n1Cc1ccc(-c2ccccc2C(=O)OC2CC(C)(C)N([O])C(C)(C)C2)cc1 [YK],reduced the MAP,–,–,–,−13,−14,−14,reduce blood pressure of conscious SHR similar to telmisartan,–,–,more effective than either tempol or telmisartan,lost with repeated dosing,reduced MAP significantly more than candesartan or candesartan plus tempol,still reduced blood pressure more than candesartan or candesartan plus tempol,significantly more effective than tempol or telmisartan alone,without effects on AT2-R binding
CCOc1nc2cccc(C(=O)O)c2n1Cc1ccc(-c2ccccc2-c2nnn[nH]2)cc1 [candesartan],reduced the MAP,–,–,–,–,–,–,–,significantly more effective in reducing the BP than tempol,–,–,–,–,–,–,–
CCCc1nc2c(C)cc(-c3nc4ccccc4n3C)cc2n1Cc1ccc(-c2ccccc2C(=O)NC2CC(C)(C)N([O])C(C)(C)C2)cc1 [PLJ],–,–,–,–,−13,−14,−14,reduce blood pressure of conscious SHR similar to telmisartan,–,–,–,–,–,–,–,–
